Data published in patent publication US20230113037A1 (Bayer Aktiengesellschaft, priority 2019, published 2023).
Where “and” joins values, the source holds several entries; their conditions need not be identical. Equal entries are not always repeated.

Columns and labels:
AHR [1] = molecular target: T1, AHR (Mus musculus, UniProt P30561); assay: In vitro assay 3: antagonism in mouse cell line (AHR transactivation, firefly luciferase reporter, kynurenic acid prestimulated); type: cell-based; details: Hepa 1c1c7 cells, 200 μM kynurenic acid, 20 hours, firefly luciferase reporter, read-out: AHR Antagonism Mouse IC50
T1 sequence (P30561 1-848 P471L/N533S/M589L): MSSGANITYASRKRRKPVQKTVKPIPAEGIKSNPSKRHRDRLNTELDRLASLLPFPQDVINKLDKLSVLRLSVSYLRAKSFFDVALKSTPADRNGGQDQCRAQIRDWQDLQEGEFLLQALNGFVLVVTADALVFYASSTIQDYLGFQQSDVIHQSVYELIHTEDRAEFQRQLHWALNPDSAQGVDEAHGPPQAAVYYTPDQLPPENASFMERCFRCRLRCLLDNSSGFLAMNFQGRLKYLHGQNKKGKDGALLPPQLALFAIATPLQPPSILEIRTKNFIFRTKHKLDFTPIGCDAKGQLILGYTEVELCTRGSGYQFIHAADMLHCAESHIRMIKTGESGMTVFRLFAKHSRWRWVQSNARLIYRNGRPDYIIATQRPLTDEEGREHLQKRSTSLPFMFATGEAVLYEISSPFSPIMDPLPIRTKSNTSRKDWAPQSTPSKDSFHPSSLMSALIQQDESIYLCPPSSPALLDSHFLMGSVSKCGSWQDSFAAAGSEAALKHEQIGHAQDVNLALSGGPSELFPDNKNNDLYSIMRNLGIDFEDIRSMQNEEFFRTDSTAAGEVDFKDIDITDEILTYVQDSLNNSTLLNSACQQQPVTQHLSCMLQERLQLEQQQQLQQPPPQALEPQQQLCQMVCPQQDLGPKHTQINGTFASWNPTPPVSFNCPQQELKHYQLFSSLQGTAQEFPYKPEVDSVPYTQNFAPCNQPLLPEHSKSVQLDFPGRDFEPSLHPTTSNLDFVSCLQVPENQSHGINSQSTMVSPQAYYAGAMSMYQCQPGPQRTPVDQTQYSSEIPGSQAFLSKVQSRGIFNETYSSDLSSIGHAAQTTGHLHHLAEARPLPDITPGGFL
Method in brief: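 Luminescence from an AHR-dependent DRE-luciferase reporter, stably integrated in mouse cells, quantifies blockade of kynurenic acid-driven activation. Unstimulated cells mark maximal inhibition; normalization uses both control types, and multiply tested compounds carry mean or median values.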

AHR [2] = molecular target: T2, AHR (Homo sapiens, UniProt P35869); assay: In vitro assay 1: antagonism in human cell line (AHR transactivation, firefly luciferase reporter, kynurenic acid prestimulated); type: cell-based; details: AHR Antagonism Human IC50 [M], firefly luciferase reporter
T2 construct: U87 MG glioblastoma cells (ATCC #HTB-14) endogenously expressing AHR; endogenous in cells; host or cells: U87 MG glioblastoma cells (ATCC #HTB-14)
T2 sequence (P35869 11-848): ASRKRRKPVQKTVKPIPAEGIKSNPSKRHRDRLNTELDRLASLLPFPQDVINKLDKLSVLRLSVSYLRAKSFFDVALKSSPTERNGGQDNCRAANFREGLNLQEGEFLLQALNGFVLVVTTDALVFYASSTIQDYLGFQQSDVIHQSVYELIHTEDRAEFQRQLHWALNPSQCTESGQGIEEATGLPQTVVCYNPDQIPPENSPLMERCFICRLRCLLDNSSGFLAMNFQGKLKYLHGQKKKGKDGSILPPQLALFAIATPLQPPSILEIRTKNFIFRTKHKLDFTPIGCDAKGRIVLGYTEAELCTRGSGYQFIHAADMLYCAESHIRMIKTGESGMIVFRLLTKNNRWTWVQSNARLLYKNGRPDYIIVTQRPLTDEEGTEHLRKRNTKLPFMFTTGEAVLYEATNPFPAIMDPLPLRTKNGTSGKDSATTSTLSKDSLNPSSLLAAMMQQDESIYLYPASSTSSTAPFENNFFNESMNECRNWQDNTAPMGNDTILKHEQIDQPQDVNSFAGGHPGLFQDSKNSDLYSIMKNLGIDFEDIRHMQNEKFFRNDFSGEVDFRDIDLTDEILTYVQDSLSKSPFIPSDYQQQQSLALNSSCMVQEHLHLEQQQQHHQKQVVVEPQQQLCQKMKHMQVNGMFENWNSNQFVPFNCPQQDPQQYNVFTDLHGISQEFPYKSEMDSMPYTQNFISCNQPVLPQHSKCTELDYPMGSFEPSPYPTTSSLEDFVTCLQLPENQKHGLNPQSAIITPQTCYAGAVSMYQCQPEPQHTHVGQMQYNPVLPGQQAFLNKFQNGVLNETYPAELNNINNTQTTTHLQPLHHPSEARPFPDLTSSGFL
Method in brief: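 Antagonism is measured against kynurenic acid prestimulation in U87 MG glioblastoma cells carrying stable DRE-luciferase and Renilla reporters. Positive inhibition control: 150 μM kynurenic acid with 5 μM staurosporine. Values are normalized to controls; repeats are averaged or given as medians.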

Row | SMILES | IC50 (AHR [1]) | IC50 (AHR [2])
1 | CCCCNC(=O)[C@@H](CC)Nc1nc2c(Br)cccc2c2nc(-c3ccc(Cl)cc3OC(F)(F)F)nn12 [Example 814, (2R)-2-({7-bromo-2-[4-chloro-2-(trifluoromethoxy)phenyl][1,2,4]triazolo[1,5-c]quinazolin-5-yl}amino)-N-butylbutanamide] | 11 nM | 2.5e-08 M
2 | O=C1NCCCC[C@H]1Nc1nc2c(Cl)cccc2c2nc(-c3cnn(C4CC4)c3)nn12 [Example 816, (3R)-3-{[7-chloro-2-(1-cyclopropyl-1H-pyrazol-4-yl)[1,2,4]triazolo[1,5-c]quinazolin-5-yl]amino}azepan-2-one] | 0.99 nM | 1.05e-09 M
3 | CC(C)n1cc(-c2nc3c4cccc(Cl)c4nc(N[C@@H]4CCCCNC4=O)n3n2)cn1 [Example 817, (3R)-3-({7-chloro-2-[1-(propan-2-yl)-1H-pyrazol-4-yl][1,2,4]triazolo[1,5-c]quinazolin-5-yl}amino)azepan-2-one] | 1.94 nM | 5.24e-10 M
4 | CCn1cc(-c2nc3c4cccc(Cl)c4nc(N[C@@H]4CCCCNC4=O)n3n2)cn1 [Example 818, (3R)-3-{[7-chloro-2-(1-ethyl-1H-pyrazol-4-yl)[1,2,4]triazolo[1,5-c]quinazolin-5-yl]amino}azepan-2-one] | 2.18 nM | 6.2e-10 M
5 | CCn1cc(-c2nc3c4cccc(Cl)c4nc(N[C@@H]4CCCCNC4=O)n3n2)c(C)n1 [Example 819, (3R)-3-{[7-chloro-2-(1-ethyl-3-methyl-1H-pyrazol-4-yl)[1,2,4]triazolo[1,5-c]quinazolin-5-yl]amino}azepan-2-one] | 0.385 nM | 2.31e-10 M
6 | Cc1nn(C)cc1-c1nc2c3cccc(Cl)c3nc(N[C@@H]3CCCCNC3=O)n2n1 [Example 821, (3R)-3-{[7-chloro-2-(1,3-dimethyl-1H-pyrazol-4-yl)[1,2,4]triazolo[1,5-c]quinazolin-5-yl]amino}azepan-2-one] | 0.739 nM | 2.98e-10 M
7 | O=C1NCCCC[C@H]1Nc1nc2c(Br)cccc2c2nc(-c3cnn(C4CCC4)c3)nn12 [Example 824, (3R)-3-{[7-bromo-2-(1-cyclobutyl-1H-pyrazol-4-yl)[1,2,4]triazolo[1,5-c]quinazolin-5-yl]amino}azepan-2-one] | 0.845 nM | 9.98e-10 M
8 | CCn1cc(-c2nc3c4cccc(Br)c4nc(N[C@@H]4CCCCNC4=O)n3n2)c(C)n1 [Example 825, (3R)-3-{[7-bromo-2-(1-ethyl-3-methyl-1H-pyrazol-4-yl)[1,2,4]triazolo[1,5-c]quinazolin-5-yl]amino}azepan-2-one] | 0.475 nM | 3.72e-10 M
9 | O=C1NCCCC[C@H]1Nc1nc2c(Br)cccc2c2nc(-c3cnn(CC4CC4)c3)nn12 [Example 826, (3R)-3-({7-bromo-2-[1-(cyclopropylmethyl)-1H-pyrazol-4-yl][1,2,4]triazolo[1,5-c]quinazolin-5-yl}amino)azepan-2-one] | 2.26 nM | 1.77e-09 M
10 | CN(C)c1cccc2c1nc(N[C@@H]1CCCCNC1=O)n1nc(-c3cnn(C)c3)nc21 [Example 828, (3R)-3-{[7-(dimethyalmino)-2-(1-methyl-1H-pyrazol-4-yl)[1,2,4]triazolo[1,5-c]quinazolin-5-yl]amino}azepan-2-one] | 13500 nM | 1.78e-07 M
11 | CCn1cc(-c2nc3c4cccc(Br)c4nc(N[C@@H]4CCCCNC4=O)n3n2)cn1 [Example 831, (3R)-3-{[7-bromo-2-(1-ethyl-1H-pyrazol-4-yl)[1,2,4]triazolo[1,5-c]quinazolin-5-yl]amino}azepan-2-one] | 1.54 nM | 8.88e-10 M
12 | O=C1NCCCC[C@H]1Nc1nc2c(C(F)(F)F)cccc2c2nc(-c3ccc(Cl)cc3)nn12 [Example 833, (3R)-3-{[2-(4-chlorophenyl)-7-(trifluoromethyl)[1,2,4]triazolo[1,5-c]quinazolin-5-yl]amino}azepan-2-one] | 1.27 nM | 1.12e-09 M
13 | CCn1cc(-c2nc3c4cccc(F)c4nc(N[C@@H]4CCCCNC4=O)n3n2)cn1 [Example 834, (3R)-3-{[2-(1-ethyl-1H-pyrazol-4-yl)-7-fluoro[1,2,4]triazolo[1,5-c]quinazolin-5-yl]amino}azepan-2-one] | 10.7 nM | 6.25e-09 M

Next, values leading:

Row | IC50 (AHR [1]) | IC50 (AHR [2]) | SMILES
14 | 43.3 nM | > 5.71e-06 M and 4.65e-06 M and > 2e-06 M | CCCNC(=O)[C@H](C)Nc1nc2c(Br)cccc2c2nc(-c3ccc(Cl)cc3OC(F)(F)F)nn12 [Example 811, N^2-{7-bromo-2-[4-chloro-2-(trifluoromethoxy)phenyl][1,2,4]triazolo[1,5-c]quinazolin-5-yl}-N-propyl-L-alaninamide]
15 | 2.47 nM | 3.57e-09 M | CCCNC(=O)[C@@H](CC)Nc1nc2c(Br)cccc2c2nc(-c3ccc(Cl)cc3OC(F)(F)F)nn12 [Example 812, (2R)-2-({7-bromo-2-[4-chloro-2-(trifluoromethoxy)phenyl][1,2,4]triazolo[1,5-c]quinazolin-5-yl}amino)-N-propylbutanamide]
16 | 1920 nM and > 2000 nM | > 2e-06 M | CCCCNC(=O)[C@H](CC)Nc1nc2c(Br)cccc2c2nc(-c3ccc(Cl)cc3OC(F)(F)F)nn12 [Example 813, (2S)-2-({7-bromo-2-[4-chloro-2-(trifluoromethoxy)phenyl][1,2,4]triazolo[1,5-c]quinazolin-5-yl}amino)-N-butylbutanamide]
17 | 1.6 nM | 2.78e-10 M | Cc1nn(C)cc1-c1nc2c3cccc(Br)c3nc(N[C@@H]3CCCCNC3=O)n2n1 [Example 815, (3R)-3-{[7-bromo-2-(1,3-dimethyl-1H-pyrazol-4-yl)[1,2,4]triazolo[1,5-c]quinazolin-5-yl]amino}azepan-2-one]
18 | 71.5 nM | 6.33e-09 M | CC(C)n1cc(-c2nc3c4cccc(C5CC5)c4nc(N[C@@H]4CCCCNC4=O)n3n2)cn1 [Example 820, (3R)-3-({7-cyclopropyl-2-[1-(propan-2-yl)-1H-pyrazol-4-yl][1,2,4]triazolo[1,5-c]quinazolin-5-yl}amino)azepan-2-one]
19 | 1.68 nM | 7.23e-10 M | CC(C)n1cc(-c2nc3c4cccc(Br)c4nc(N[C@@H]4CCCCNC4=O)n3n2)cn1 [Example 822, (3R)-3-({7-bromo-2-[1-(propan-2-yl)-1H-pyrazol-4-yl][1,2,4]triazolo[1,5-c]quinazolin-5-yl}amino)azepan-2-one]
20 | 3.01 nM | 2.13e-09 M | Cc1c(-c2nc3c4cccc(Br)c4nc(N[C@@H]4CCCCNC4=O)n3n2)cnn1C [Example 823, (3R)-3-{[7-bromo-2-(1,5-dimethyl-1H-pyrazol-4-yl)[1,2,4]triazolo[1,5-c]quinazolin-5-yl]amino}azepan-2-one]
21 | 5.68 nM | 2.58e-09 M | O=C1NCCCC[C@H]1Nc1nc2c(Br)cccc2c2nc(-c3cnn(CC4CCC4)c3)nn12 [Example 832, (3R)-3-({7-bromo-2-[1-(cyclobutylmethyl)-1H-pyrazol-4-yl][1,2,4]triazolo[1,5-c]quinazolin-5-yl}amino)azepan-2-one]
